Results: ChEMBL document CHEMBL1126313, “Cysteine protease inhibition by azapeptide esters” (J Med Chem, 1992)

biological target: T1, Papain (Carica papaya) (UniProt P00784); assay: The compound was tested for Rate of Inhibition of Papain.
T1 sequence (whole entry): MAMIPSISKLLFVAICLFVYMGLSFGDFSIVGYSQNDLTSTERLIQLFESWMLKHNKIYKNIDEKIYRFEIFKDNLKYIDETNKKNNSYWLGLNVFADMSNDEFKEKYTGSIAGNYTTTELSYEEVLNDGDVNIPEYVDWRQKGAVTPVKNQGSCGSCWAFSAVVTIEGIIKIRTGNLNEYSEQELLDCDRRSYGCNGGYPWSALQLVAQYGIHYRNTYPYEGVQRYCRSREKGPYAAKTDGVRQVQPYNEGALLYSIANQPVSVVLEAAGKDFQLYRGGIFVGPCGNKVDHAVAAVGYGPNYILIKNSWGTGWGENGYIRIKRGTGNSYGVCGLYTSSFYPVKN

ki/Ki | Structure (SMILES)
13 M⁻¹ s⁻¹ | COC(=O)NNC(=O)[C@H](Cc1ccccc1)NC(C)=O
> 11000 M⁻¹ s⁻¹ | CC(=O)N[C@@H](Cc1ccccc1)C(=O)NNC(=O)Oc1ccccc1
18 M⁻¹ s⁻¹ | CC(=O)N[C@@H](Cc1ccccc1)C(=O)NNC(=O)OCC(C)C
0.02 M⁻¹ s⁻¹ | CC(=O)N[C@@H](Cc1ccccc1)C(=O)NN(C)C(=O)OCC(C)C
